For one experiment, the system named is breast cancer. As to conditions: women receiving tamoxifen; cited from earlier work.
Experiment [1] has as its system PR Ser294 phosphorylation. Nature of the experiment: PR Ser294 phosphorylation in T47D cells (Western blotting, immunofluorescence). The note with it: T47D cells expressing WT or KR PR. The format is cell-based, human. How it is done: T47D human breast cancer cell lines engineered to stably express PR variants (null, WT, K388R, or S294A) were previously described (Knutson et al. Breast Cancer Res 2012, 14:R9). T47D cells were maintained in complete minimal essential medium (cMEM) supplemented with 5% fetal bovine serum (FBS), 1% non-essential amino acids (NEAA), 1% penicillin/streptomycin, 6 ng/ml insulin (CellGro, Manassas, Va., USA, catalog #10-010-CV). T47D cells described above were engineered to also stably express RUNX2 shRNAs via the pLKO.1 knockdown expression vector system, which required 25 μg/ml puromycin for the vector. In various experiments, cells or explants were treated with E2, ICI 182 780, R5020, mifepristone, aglepristone, or onapristone (Arno Therapeutics, Inc., Flemington, N.J.).
Immunocytochemistry was performed on T47D cells expressing PR variants to measure total- and phospho-Ser294 PR levels. 500,000 cells were grown on coverslips in 6-well plates, starved in IMEM plus 5% charcoal stripped FBS, treated, and fixed with 4% paraformaldehyde for 20 min. The cells were permeabilized with 0.3% Triton-X100 before incubating with total-PR (clone Ab8, ThermoFisher Scientific, Waltham, Mass.) or custom phospho-Ser294-PR (clone 8508) antibodies. Cells were incubated with fluorescent secondary antibodies (Alexa Fluor 488) and DAPI mounting medium (Life Technologies, ThermoFisher Scientific, Waltham, Mass.) before visualizing on a Zeiss microscope with A4 and L5 filter cubes. Immunoblotting was performed as previously described (Daniel et al. Mol Endocrinol 2007, 21:2890-2906).
In addition, extensive luminal breast cancer heterogeneity may limit the ability to observe a subset of PR-driven breast cancers without patient selection. In this case, PR target gene expression may provide an accurate means of predicting which breast tumors are likely to be influenced by PR-driven biological pathways enacted by active phospho-Ser294 PRs. To probe changes in PR target gene expression in the presence or absence of commonly used PR ligands (R5020, RU486), including diverse antiprogestins (aglepristone, onapristone) currently in development for clinical use, the well characterized model system of T47D breast cancer cells, stably expressing either unmodified wild-type (WT) PR-B or a transcriptionally hyperactive form of deSUMOylated K388R PR-B (KR; this receptor faithfully mimics phosphorylated PR-B with regard to target gene selection) were used (Knutson et al. Pharmacology & therapeutics 2014, 142:114-125; Daniel et al. Mol Endocrinol 2007, 21:2890-2906). Whether the antiprogestins mifepristone (also called RU486), aglepristone, or onapristone alter PR Ser294 phosphorylation were tested in these T47D breast cancer models. Cells were treated for 1 hour with vehicle, progesterone, mifepristone, aglepristone, or onapristone and whole cell lysates were processed for Western blotting or immunofluorescence (IF) analysis (FIG. 4A, B). […] Greater loss of total KR PR protein was also apparent in the presence of progesterone and selected antiprogestins relative to liganded WT PR, consistent with increased turnover of deSUMOylated active receptors relative to intact WT PRs.
For orientation: Immunoblotting shows a protein as a band on a membrane.

Experiment [2] deals with PR target gene expression. Briefly: Global gene expression analysis (Illumina HT-12v4) in T47D cells expressing WT or K388R PR-B. In kind it is cell-based, human. The note with it: T47D KR PR, antiprogestin 10^-7 M, 6 hours. How it is done:
For genome-wide microarray expression analysis, T47D cells expressing pIRES-neo3 empty vector, WT PR, or K388R PR were serum starved in modified improved minimum essential media (IMEM) (Gibco, ThermoFisher Scientific, Waltham, Mass.) for one day before treatment. Eight groups were treated with vehicle control, progesterone (10^−8 M), mifepristone (10^−7 M), aglepristone (10^−7 M), onapristone (10^−7 M), or combined treatment of progesterone+mifepristone, progesterone+aglepristone, or progesterone+onapristone for six hours before RNA extraction using a RNeasy kit (QIAgen). DNase I treated (QIAgen) RNA samples from triplicate experiments were prepared for expression analysis using the Illumina HT-12v4 bead chip platform according to standard protocols. Raw data from agonist-treated cells (progesterone or R5020) collected from two identically performed independent experiments (from this study and a previous study: GSE34148 (Knutson et al. Breast Cancer Res 2012, 14:R95)) was combined, normalized, and batch-corrected to ensure that gene expression values were informative across samples from separate experiments. Data were analyzed within multiple common R (R Core Team: R: A language and environment for statistical computing. R Foundation for Statistical Computing, Vienna, Austria 2015, [available on the world wide web at r-project.org/]) and Bioconductor (Gentleman et al. Genome Biol 2004, 5:R80) packages. Raw intensities were log 2 transformed and quantile normalized using lumi (Du et al. Bioinformatics 2008, 24:1547-1548), batch corrected using sva (Leek et al.: sva: Surrogate Variable Analysis. R package version 3.18.0.), and multiple probes for a single gene were collapsed using genefilter (Gentleman et al.: genefilter: genefilter: methods for filtering genes from high-throughput experiments. R package version 1.52.1). Differentially expressed genes (pairwise comparisons between all eight groups) were analyzed in limma (Smyth: Limma: linear models for microarray data. In: Bioinformatics and computational biology solutions using R and Bioconductor. edn.: Springer; 2005: 397-420), where empirical Bayes was used to better estimate the variance of the genes. Biological comparisons (for example, R5020/vehicle) were presented as log 2 fold change including the Benjamini and Hochberg (BH) adjusted P value (Benjamini et al. J Roy Stat Soc B Met 1995, 57:289-300) to account for multiple hypothesis testing. Expression data is available in the GEO database, accession: GSE94363.
Normalized gene expression data were filtered to isolate only high variance genes using the bioconductor package genefilter (Gentleman et al.: genefilter: genefilter: methods for filtering genes from high-throughput experiments. In., R package version 1.50.0 edn: R package version 1.50.0) using interquartile range cutoff value of 0.85. Non-negative matrix factorization (NMF) was performed within R using the NMF package version 0.20.5 (Gaujoux et al. BMC bioinformatics 2010, 11:367) where matrix factors were rank (2-10) and algorithm (brunet or snmf/r) optimized using the nmf function with parameters nrun=30 and seed=123456. […] Clustering and plots were performed in R (NMF package, a heat map function) using Euclidean distance and UPGMA (average) linkage.
PR ligand-mediated promoter selectivity remains understudied, especially in the context of antiprogestins and posttranslationally modified PR species. […]

The subject of experiment [3] is PR Ser294 phosphorylation. Briefly: Breast tumor explants, phospho-Ser294 PR IHC. As to conditions: progesterone 10 nM plus U0126 (1 nM as printed elsewhere in the source), 2 hours. In kind it is cell-based, human.
Description: De-identified breast tumor samples were collected after surgery and immediately processed for tissue explant maintenance on sponges in cell culture medium, as previously described (Ravindranathan et al. Nature Communications 2013, 4:1923). Samples were derived from six patients pathologically diagnosed with invasive ductal carcinoma (IDC) and scored positive for ER (94-100%) and PR (1-100%), and negative for HER2 expression. […] In additional experiments, six explants were similarly treated with estrogen or progesterone (2 hours) but in combination with 1 uM U0126 (to inhibit ERKs 1/2) and phospho-Ser294 PR levels were measured by IHC.
ER+ luminal tumors were maintained as explants as above and instead treated with either vehicle or progesterone (10 nM) for 2 hours in the presence or absence of the MEK1/2 inhibitor U0126 (1 nM) prior to IHC staining using specific antibodies for total and phospho-Ser294 PR as well as ER-alpha and phospho-ERK1/2 (n=6; see Methods).
For another experiment, the system named is T47D cells. Nature of the experiment: Mammosphere formation in T47D cells. In kind it is cell-based, human. The note with it: T47D EV, WT, KR or S294A PR-B; estrogen 1 nM, progesterone 10 nM; 14 days. How it is done:
Primary Mammospheres: Adherent cells were washed with PBS and dissociated enzymatically in 0.25% trypsin-EDTA (Invitrogen Corporation, Carlsbad, Calif.). Cells were sieved through a 40-μm sieve (BD FALCON, BD Biosciences, Bedford, Mass.) and analyzed microscopically for single-cellularity. Single cells were plated in ultra-low attachment plates (Corning, Inc., Corning, N.Y.) and cultured in a humid incubator. Cells were grown in a serum-free mammary epithelial basal medium (MEBM; Lonza Group, Basel, Switzerland) containing 1% B27 Supplement (Invitrogen Corporation, Carlsbad, Calif.), 1% penicillin-streptomycin (Invitrogen Corporation, Carlsbad, Calif.), 5 μg/ml insulin (Invitrogen Corporation, Carlsbad, Calif.), 20 ng/ml EGF (Sigma-Aldrich, St. Louis, Mo.), 1 ng/ml hydrocortisone (Sigma-Aldrich, St. Louis, Mo.), and 100 μM β-mercaptoethanol. […] Mammosphere Forming Efficiency (MFE) % was calculated by the number of mammospheres per well/number of cells seeded per well.
Secondary Mammospheres: Primary mammospheres were collected by centrifugation (5 min, 1000 rpm), and dissociated enzymatically in 0.25% typsin-EDTA. Cells were sieved through a 40-μm tip strainer (Bel-Art SP Scienceware, South Wayne, N.J.) and analyzed microscopically for single-cellularity. […] Mammosphere Forming Efficiency (MFE) % was calculated by the number of mammospheres per well/number of cells seeded per well. […]

Molecules are shown by their SMILES.

Take `CC/C(=C(\c1ccccc1)c1ccc(OCCN(C)C)cc1)c1ccccc1` [tamoxifen]: in the experiment on breast cancer, the “women suffering tumor relapse” value is roughly 40%.
In the case of `C/C=C\[C@]1(O)CC[C@H]2[C@@H]3CCC4=CC(=O)CCC4=C3[C@@H](c3ccc(N(C)C)cc3)C[C@@]21C` [aglepristone], the “PR Ser294 phosphorylation, ligand alone” value in experiment [1] (1 hour) is recorded as “stimulated robust PR Ser294 phosphorylation”. In addition, the “PR Ser294 phosphorylation in the presence of progesterone (co-treatment)” value in experiment [1] (progesterone plus antiprogestin) was “also induced Ser294 phosphorylation”. In addition, in experiment [2], the “regulation of PR target genes in cells expressing KR PR” value is “substantially regulate multiple genes in cells expressing KR PR”.
As for `N#CC(=C(/N)Sc1ccccc1N)/C(C#N)=C(\N)Sc1ccccc1N` [U0126], the “effect on progesterone-induced PR Ser294 phosphorylation in tumor explants” value in experiment [3] is on record as “blocked”.
Consider `C[C@]12CC[C@@H]3c4ccc(O)cc4CC[C@H]3[C@@H]1CC[C@@H]2O` [estrogen, estradiol], for which the “total numbers of primary and secondary mammospheres on addition of hormone to culture media” value with T47D cells is recorded as “had no significant effect on total numbers in any condition”.

The values are drawn from patent US10942183B2, “Methods of detecting progesterone receptor and of detecting an expression level” (REGENTS OF THE UNIVERSITY OF MINNESOTA, priority 2017, dated 2021).
